# Test results: the supplement of paper PMC11061612
# Key:
# Assay in all cases: combination Emax (second highest fraction inhibited in the dose matrix, 72 h); higher = more inhibition; extreme values may be limits of the assay
# SK-MEL-1 (Melanoma) = tested on: SK-MEL-1 (Melanoma)
# Outline: (§1)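 After 24 hours at 37°C and 5% CO2 in 1536-well plates, cells in DMEM/F12 or RPMI plus 10% FBS received two-drug dose matrices for 72 hours. Viability came from CellTiter-Glo 2.0 luminescence and was scaled as inhibition, anchored at 0 by vehicle wells and at 1 by blank wells. Combination Emax is taken as the second-highest inhibition in the matrix, and Bliss excess as the observed combination effect less EA + EB − EA·EB, with EA and EB the single-agent effects.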
# [1] = tested on: MEG-01 (Chronic Myelogenous Leukemia)
# Outline: as §1
# [2] = tested on: SW948 (Colorectal Carcinoma)
# Outline: as §1
# [3] = tested on: ETK-1 (Biliary Tract Carcinoma)
# Outline: as §1
# [4] = tested on: SK-UT-1 (Other Solid Carcinomas)
# Outline: as §1
# [5] = tested on: SK-LMS-1 (Other Solid Carcinomas)
# Outline: as §1
# CS1 (Chondrosarcoma) = tested on: CS1 (Chondrosarcoma)
# Outline: as §1
# [6] = tested on: TYK-nu (Ovarian Carcinoma)
# Outline: as §1
# MCF7 (Breast Carcinoma) = tested on: MCF7 (Breast Carcinoma)
# Outline: as §1
# [7] = tested on: DOK (Oral Cavity Carcinoma)
# Outline: as §1
# H4 (Low Grade Glioma) = tested on: H4 (Low Grade Glioma)
# Outline: as §1
# [8] = tested on: D-283MED (Other Solid Carcinomas)
# Outline: as §1
# HCC38 (Breast Carcinoma) = tested on: HCC38 (Breast Carcinoma)
# Outline: as §1
# EW-22 (Ewing's Sarcoma) = tested on: EW-22 (Ewing's Sarcoma)
# Outline: as §1
# [9] = tested on: SW48 (Colorectal Carcinoma)
# Outline: as §1
# [10] = tested on: HCC-827 (Lung Adenocarcinoma)
# Outline: as §1
# [11] = tested on: EKVX (Non-Small Cell Lung Carcinoma)
# Outline: as §1
# A172 (Glioblastoma) = tested on: A172 (Glioblastoma)
# Outline: as §1
# [12] = tested on: JHH-6 (Hepatocellular Carcinoma)
# Outline: as §1
# [13] = tested on: WSU-DLCL2 (B-Cell Non-Hodgkin's Lymphoma)
# Outline: as §1
Compound,combination Emax (SK-MEL-1 (Melanoma)),combination Emax [1],combination Emax [2],combination Emax [3],combination Emax [4],combination Emax [5],combination Emax (CS1 (Chondrosarcoma)),combination Emax [6],combination Emax (MCF7 (Breast Carcinoma)),combination Emax [7],combination Emax (H4 (Low Grade Glioma)),combination Emax [8],combination Emax (HCC38 (Breast Carcinoma)),combination Emax (EW-22 (Ewing's Sarcoma)),combination Emax [9],combination Emax [10],combination Emax [11],combination Emax (A172 (Glioblastoma)),combination Emax [12],combination Emax [13]
"Cc1c2c(nn1C)CSCc1cc(n(C)n1)CSc1cc(c3ccccc3c1)OCCCc1c(C(=O)O)n(C)c3c-2c(Cl)ccc13 [AZD5991] + CN(C)CCCOc1ccc(-c2ccc3ncc4c(c3c2)n(C2CCOCC2)c(=O)n4C)cn1 [AZD0156] (first compound max 1 µM, 7x7, partner max 1 µM)",0.261,0.432,0.296,0.26,0.245,0.205,0.235,0.397,0.612,0.331,0.448,0.36,0.365,0.512,0.216,0.345,0.239,0.228,0.188,1
"Cc1c2c(nn1C)CSCc1cc(n(C)n1)CSc1cc(c3ccccc3c1)OCCCc1c(C(=O)O)n(C)c3c-2c(Cl)ccc13 [AZD5991] + C[C@@H]1COCCN1C2=NC(=NC(=C2)C3(CC3)[S@](=N)(=O)C)C4=C5C=CNC5=NC=C4 [AZD6738] (first compound max 1 µM, 7x7, partner max 10 µM)",0.226,0.931,0.563,0.658,0.801,0.453,0.591,0.74,0.776,0.633,0.813,0.992,0.688,0.921,0.739,0.426,0.29,0.679,0.416,1
"Cc1c2c(nn1C)CSCc1cc(n(C)n1)CSc1cc(c3ccccc3c1)OCCCc1c(C(=O)O)n(C)c3c-2c(Cl)ccc13 [AZD5991] + C[C@@H](Nc1cc(F)cc(F)c1)c1cc(C(=O)N(C)C)cc2c(=O)cc(N3CCOCC3)oc12 [AZD8186] (first compound max 1 µM, 7x7, partner max 3 µM)",0.153,0.416,0.345,0.306,0.188,0.453,0.235,0.254,0.71,0.459,0.656,0.342,0.396,0.491,0.387,0.288,0.29,0.304,0.236,1
"Cc1c2c(nn1C)CSCc1cc(n(C)n1)CSc1cc(c3ccccc3c1)OCCCc1c(C(=O)O)n(C)c3c-2c(Cl)ccc13 [AZD5991] + Cc1cc2ncnn2cc1Nc1ncc2c(n1)n(C1CCOCC1)c(=O)n2C [AZD7648] (first compound max 1 µM, 7x7, partner max 10 µM)",0.303,0.468,0.436,0.294,0.282,0.344,0.207,0.412,0.665,0.421,0.378,0.435,0.335,0.504,0.33,0.288,0.303,0.322,0.219,1
"Cc1c2c(nn1C)CSCc1cc(n(C)n1)CSc1cc(c3ccccc3c1)OCCCc1c(C(=O)O)n(C)c3c-2c(Cl)ccc13 [AZD5991] + Cn1cnc2c(F)c(Nc3ccc(Br)cc3Cl)c(C(=O)NOCCO)cc21 [Selumetinib] (first compound max 1 µM, 7x7, partner max 3 µM)",0.912,0.872,0.69,0.311,0.164,0.22,0.224,0.513,0.559,0.903,0.456,0.237,0.33,0.566,0.565,0.201,0.348,0.316,0.253,1
"Cc1cc2ncnn2cc1Nc1ncc2c(n1)n(C1CCOCC1)c(=O)n2C [AZD7648] + C=CCn1c(=O)c2cnc(Nc3ccc(N4CCN(C)CC4)cc3)nc2n1-c1cccc(C(C)(C)O)n1 [AZD1775] (first compound max 10 µM, partner max 1 µM)",0.399,0.923,0.83,0.452,0.657,0.572,0.541,0.695,0.552,0.482,0.796,0.957,0.531,0.602,0.45,0.497,0.306,0.617,0.311,0.999
"Cc1cc2ncnn2cc1Nc1ncc2c(n1)n(C1CCOCC1)c(=O)n2C [AZD7648] + CCN(CCO)CCCOc1ccc2c(Nc3cc(CC(=O)Nc4cccc(F)c4)[nH]n3)ncnc2c1 [AZD2811] (first compound max 10 µM, 7x7, partner max 1 µM)",0.3,0.507,0.737,0.25,0.341,0.409,0.343,0.422,0.55,0.47,0.711,0.74,0.287,0.698,0.963,0.24,0.309,0.611,0.339,0.476
